According to patent US6737383B1, “Herbicidal oxadiazolidines” (priority 1999, dated 2004):

Tests used:
[1] = tested on: cocklebur; assay: Test B pre/postemergence cocklebur; format: in vivo, Xanthium strumarium; conditions: for Cocklebur plant response rating: scale of 0 to 10 where 0 is no effect and 10 is complete control
Outline: (§1)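 Response is a visual 0-to-10 score relative to untreated plants, where 0 means no effect and 10 means complete control, taken twelve to sixteen days after application. Treatments went onto soil at planting and onto foliage of 1- to 4-leaf plants, using a surfactant-containing non-phytotoxic solvent.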

[2] = tested on: purple nutsedge; assay: Test B pre/postemergence purple nutsedge; format: in vivo, Cyperus rotundus; conditions: for Nutsedge plant response rating: scale of 0 to 10 where 0 is no effect and 10 is complete control
Outline: as §1

[3] = tested on: corn; assay: Test B pre/postemergence corn; format: in vivo, Zea mays; conditions: for Corn plant response rating: scale of 0 to 10 where 0 is no effect and 10 is complete control
Outline: as §1

[4] = tested on: crabgrass; assay: Test B pre/postemergence crabgrass; format: in vivo, Digitaria sanguinalis; conditions: for Crabgrass plant response rating: scale of 0 to 10 where 0 is no effect and 10 is complete control
Outline: as §1

[5] = tested on: morningglory; assay: Test B pre/postemergence morningglory; format: in vivo, Ipomoea hederacea; conditions: for Morningglory plant response rating: scale of 0 to 10 where 0 is no effect and 10 is complete control
Outline: as §1

[6] = tested on: giant foxtail; assay: Test B pre/postemergence giant foxtail; format: in vivo, Setaria faberii; conditions: for Giant foxtail plant response rating: scale of 0 to 10 where 0 is no effect and 10 is complete control
Outline: as §1

[7] = tested on: duck salad; assay: Test B flood test duck salad; format: in vivo, Heteranthera limosa
Outline: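 Each value is a visual injury score relative to controls, with 10 meaning complete control and 0 no effect. Evaluation took place twelve to sixteen days after the 2-leaf-stage plants were treated and kept in the greenhouse.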

[8] = tested on: surinam grass; assay: Test B pre/postemergence surinam grass; format: in vivo, Brachiaria decumbens; conditions: for B. signalgrass plant response rating: scale of 0 to 10 where 0 is no effect and 10 is complete control
Outline: as §1

[9] = tested on: pigweed; assay: Test B pre/postemergence pigweed; format: in vivo, Amaranthus retroflexus; conditions: for Redroot pigweed plant response rating: scale of 0 to 10 where 0 is no effect and 10 is complete control
Outline: as §1

[10] = tested on: wheat; assay: Test B pre/postemergence wheat; format: in vivo, Triticum aestivum; conditions: for Wheat plant response rating: scale of 0 to 10 where 0 is no effect and 10 is complete control
Outline: as §1

[11] = tested on: bedstraw; assay: Test B pre/postemergence bedstraw; format: in vivo, Galium aparine; conditions: Rate 500 g/ha, scale of 0 to 10 where 0 is no effect and 10 is complete control
Outline: as §1

[12] = tested on: soybean; assay: Test B pre/postemergence soybean; format: in vivo, Glycine max; conditions: for Soybean plant response rating: scale of 0 to 10 where 0 is no effect and 10 is complete control
Outline: as §1

[13] = tested on: velvetleaf; assay: Test B pre/postemergence velvetleaf; format: in vivo, Abutilon theophrasti; conditions: for Velvetleaf plant response rating: scale of 0 to 10 where 0 is no effect and 10 is complete control
Outline: as §1

[14] = tested on: sugar beet; assay: Test B pre/postemergence sugar beet; format: in vivo, Beta vulgaris; conditions: for Sugarbeets plant response rating: scale of 0 to 10 where 0 is no effect and 10 is complete control
Outline: as §1

[15] = tested on: rape; assay: Test B pre/postemergence rape; format: in vivo, Brassica napus; conditions: for Rape plant response rating: scale of 0 to 10 where 0 is no effect and 10 is complete control
Outline: as §1

[16] = Postemergence, Rate 125 g/ha, scale 0 to 10, 0 is no effect, 10 is complete control
[17] = Postemergence, Rate 250 g/ha, scale 0 to 10, 0 is no effect, 10 is complete control
[18] = Preemergence, Rate 62 g/ha, scale 0 to 10 (0 no effect, 10 complete control)

CC(C)N(C(=O)n1oc(=O)n(CCC#N)c1=O)c1ccc(F)cc1 [Compound 388]
Plant response rating, Cocklebur [1, 16]: 0 | Plant response rating, Cocklebur [1, 17]: 0 | Cocklebur plant response rating ([1]; Postemergence, Rate 500 g/ha): 0 | Plant response rating, Cocklebur [1, 18]: 0 | Cocklebur plant response rating (0 to 10 scale) ([1]; Preemergence, Rate 125 g/ha): 0 | Cocklebur plant response rating ([1]; Preemergence, Rate 250 g/ha): 0 | Cocklebur plant response rating ([1]; Preemergence, Rate 500 g/ha): 0 | Cocklebur plant response rating ([1]; Rate 62 g/ha, Postemergence): 0 | Plant response rating, Nutsedge [2, 17]: 5 | Nutsedge plant response rating ([2]; Postemergence, Rate 500 g/ha): 6 | Plant response rating, Nutsedge [2, 18]: 0 | Nutsedge plant response rating (0 to 10 scale) ([2]; Preemergence, Rate 125 g/ha): 0 | Nutsedge plant response rating ([2]; Preemergence, Rate 250 g/ha): 0 | Plant response rating, Corn [3, 16]: 0 | Plant response rating, Corn [3, 17]: 0 | Corn plant response rating ([3]; Postemergence, Rate 500 g/ha): 0 | Plant response rating, Corn [3, 18]: 0 | Corn plant response rating (0 to 10 scale) ([3]; Preemergence, Rate 125 g/ha): 0 | Corn plant response rating ([3]; Preemergence, Rate 500 g/ha): 9 | Corn plant response rating ([3]; Rate 62 g/ha, Postemergence): 0 | Plant response rating, Crabgrass [4, 16]: 4 | Plant response rating, Crabgrass [4, 17]: 8 | Crabgrass plant response rating ([4]; Postemergence, Rate 500 g/ha): 9 | Plant response rating, Crabgrass [4, 18]: 6 | Crabgrass plant response rating (0 to 10 scale) ([4]; Preemergence, Rate 125 g/ha): 8 | Crabgrass plant response rating ([4]; Preemergence, Rate 250 g/ha): 10 | Crabgrass plant response rating ([4]; Preemergence, Rate 500 g/ha): 10 | Crabgrass plant response rating ([4]; Rate 62 g/ha, Postemergence): 4 | Plant response rating, Morningglory [5, 16]: 3 | Plant response rating, Morningglory [5, 17]: 4 | Morningglory plant response rating ([5]; Postemergence, Rate 500 g/ha): 5 | Plant response rating, Morningglory [5, 18]: 0 | Morningglory plant response rating (0 to 10 scale) ([5]; Preemergence, Rate 125 g/ha): 0 | Morningglory plant response rating ([5]; Preemergence, Rate 250 g/ha): 0 | Morningglory plant response rating ([5]; Preemergence, Rate 500 g/ha): 0 | Morningglory plant response rating ([5]; Rate 62 g/ha, Postemergence): 1 | Plant response rating, Giant foxtail [6, 16]: 8 | Plant response rating, Giant foxtail [6, 17]: 8 | Giant foxtail plant response rating ([6]; Postemergence, Rate 500 g/ha): 9 | Plant response rating, Giant foxtail [6, 18]: 8 | Giant foxtail plant response rating (0 to 10 scale) ([6]; Preemergence, Rate 125 g/ha): 8 | Giant foxtail plant response rating ([6]; Preemergence, Rate 250 g/ha): 10 | Giant foxtail plant response rating ([6]; Preemergence, Rate 500 g/ha): 10 | Giant foxtail plant response rating ([6]; Rate 62 g/ha, Postemergence): 7 | Plant response rating, Ducksalad (0 to 10 scale, 0 is no effect, 10 is complete control) ([7]; Rate 62 g/ha, flood test species, Pre-emergence, visual evaluation after twelve to sixteen days): 0 | Ducksalad plant response rating (0 to 10 scale, 0 is no effect, 10 is complete control) ([7]; Rate 125 g/ha, under heading Pre-emergence, flood test species, visual evaluation after twelve to sixteen days): 0 | Ducksalad plant response rating ([7]; Rate 250 g/ha, Pre-emergence, flood-test species, scale 0 to 10, 0 is no effect, 10 is complete control): 0 | Ducksalad plant response rating ([7]; Rate 500 g/ha, Pre-emergence, flood test species, scale 0 to 10 (0 no effect, 10 complete control)): 0 | Plant response rating, B. signalgrass [8, 16]: 6 | Plant response rating, B. signalgrass [8, 17]: 8 | B. signalgrass plant response rating ([8]; Postemergence, Rate 500 g/ha): 8 | Plant response rating, B. signalgrass [8, 18]: 0 | B. signalgrass plant response rating (0 to 10 scale, 0 is no effect, 10 is complete control) ([8]; Preemergence, Rate 125 g/ha): 2 | B. signalgrass plant response rating ([8]; Preemergence, Rate 250 g/ha): 3 | B. signalgrass plant response rating ([8]; Preemergence, Rate 500 g/ha): 6 | B. signalgrass plant response rating ([8]; Rate 62 g/ha, Postemergence): 1 | Plant response rating, Redroot pigweed [9, 16]: 0 | Plant response rating, Redroot pigweed [9, 17]: 0 | Redroot pigweed plant response rating ([9]; Postemergence, Rate 500 g/ha): 3 | Plant response rating, Redroot pigweed [9, 18]: 0 | Redroot pigweed plant response rating (0 to 10 scale) ([9]; Preemergence, Rate 125 g/ha): 0 | Redroot pigweed plant response rating ([9]; Preemergence, Rate 250 g/ha): 6 | Redroot pigweed plant response rating ([9]; Preemergence, Rate 500 g/ha): 10 | Redroot pigweed plant response rating ([9]; Rate 62 g/ha, Postemergence): 0 | Plant response rating, Wheat [10, 16]: 0 | Plant response rating, Wheat [10, 17]: 3 | Wheat plant response rating ([10]; Postemergence, Rate 500 g/ha): 8 | Plant response rating, Wheat [10, 18]: 0 | Wheat plant response rating (0 to 10 scale) ([10]; Preemergence, Rate 125 g/ha): 2 | Wheat plant response rating ([10]; Preemergence, Rate 250 g/ha): 4 | Wheat plant response rating ([10]; Preemergence, Rate 500 g/ha): 8 | Wheat plant response rating ([10]; Rate 62 g/ha, Postemergence): 0 | Bedstraw plant response rating ([11]; Postemergence): 6 | Bedstraw plant response rating ([11]; Preemergence): 7 | Plant response rating, Soybean [12, 16]: 1 | Plant response rating, Soybean [12, 17]: 1 | Soybean plant response rating ([12]; Postemergence, Rate 500 g/ha): 1 | Plant response rating, Soybean [12, 18]: 0 | Soybean plant response rating (0 to 10 scale) ([12]; Preemergence, Rate 125 g/ha): 0 | Soybean plant response rating ([12]; Preemergence, Rate 250 g/ha): 0 | Soybean plant response rating ([12]; Preemergence, Rate 500 g/ha): 4 | Soybean plant response rating ([12]; Rate 62 g/ha, Postemergence): 1 | Plant response rating, Velvetleaf [13, 16]: 2 | Plant response rating, Velvetleaf [13, 17]: 2 | Velvetleaf plant response rating ([13]; Postemergence, Rate 500 g/ha): 6 | Plant response rating, Velvetleaf [13, 18]: 0 | Velvetleaf plant response rating (0 to 10 scale) ([13]; Preemergence, Rate 125 g/ha): 2 | Velvetleaf plant response rating ([13]; Preemergence, Rate 250 g/ha): 2 | Velvetleaf plant response rating ([13]; Preemergence, Rate 500 g/ha): 6 | Velvetleaf plant response rating ([13]; Rate 62 g/ha, Postemergence): 0 | Plant response rating, Sugarbeets [14, 16]: 0 | Plant response rating, Sugarbeets [14, 17]: 0 | Sugarbeets plant response rating ([14]; Postemergence, Rate 500 g/ha): 4 | Plant response rating, Sugarbeets [14, 18]: 0 | Sugarbeets plant response rating (0 to 10 scale) ([14]; Preemergence, Rate 125 g/ha): 2 | Sugarbeets plant response rating ([14]; Preemergence, Rate 250 g/ha): 3 | Sugarbeets plant response rating ([14]; Preemergence, Rate 500 g/ha): 6 | Sugarbeets plant response rating ([14]; Rate 62 g/ha, Postemergence): 0 | Plant response rating, Rape [15, 16]: 0 | Rape plant response rating ([15]; Postemergence, Rate 500 g/ha): 0 | Plant response rating, Rape [15, 18]: 0 | Rape plant response rating (0 to 10 scale) ([15]; Preemergence, Rate 125 g/ha): 0 | Rape plant response rating ([15]; Preemergence, Rate 250 g/ha): 2 | Rape plant response rating ([15]; Preemergence, Rate 500 g/ha): 8 | Rape plant response rating ([15]; Rate 62 g/ha, Postemergence): 0
